From patent US20240270713A1, “NOVEL COMPOUND EXHIBITING THERAPEUTIC EFFECT ON INFLAMMATORY DISEASE AS P38 MAP KINASE INHIBITOR” (PRAZERTHERAPEUTICS INC., priority 2021, published 2024)

Target: p-p38 MAPK (Mus musculus (Mouse), UniProt P47811)
Assay: p38 MAPK protein inhibitory ability in normal brain cells (p-p38 immunoblot, primary neurons)
Format: cell-based, ICR mice
Text: Evaluation of p38 MAPK protein inhibitory ability in normal brain cells
In order to identify inhibition of p-p38 MAPK in normal cells rather than cancer cells, the inhibition of p38 MAPK was identified by inducing inflammation after treating neuron cells obtained from cerebrum of ICR mice with each compound. In short, neurons were collected from the cerebrum of the embryos of ICR mice 17-18 days after gestation and cultured for 7 days in a neurobasal medium supplemented with 2% B27 supplements, 2 mM glutamine, and penicillin/streptomycin (100 U/ml). Primary neurons were treated with 1 μM of Compounds 4 and 6 according to the present disclosure in a culture dish respectively and cultured for 24 hours in a CO2 incubator, and then treated with 1000 ng/ml of LPS, followed by additional culture for 6 hours in a CO2 incubator.
After the cell culture was terminated according to the experimental conditions, washing was performed with cold phosphate buffered saline (PBS). The cells were then collected and centrifuged at 1200 rpm for 3 minutes. The cells in the sediment were lysed with 2X sample buffer (1M Tris-HCl pH 6.8, 50% glycerol, 10% SDS, 2-mercaptoethanol, 1% bromophenol blue) and boiled at 100° C. for 10 minutes. The prepared protein samples were subjected to sodium dodecyl sulfate poly acrylamide gel electrophoresis and transferred to PVDF membrane (Millipore). For a specific binding reaction between the protein in the PVDF membrane and antibody, blocking was performed in a 5% bovine serum albumin (BSA, RMbio) solution. Subsequently, the BSA solution was discarded, and the membrane was washed with PBS-T (0.5% Tween 20 in PBS). The binding reaction between the protein in the membrane and antibody was performed overnight at 4° C. and washed again with PBS-T. Finally, a secondary antibody (Cell signaling Technology) conjugated with horse radish peroxidase (HRP) was diluted in PBS-T and reacted at room temperature for 2 hours. Luminata Forte HRP substrate (Millipore) was used to determine the amount of protein in the membrane, the results of which are shown in Table 9 below.

Sequence of p-p38 MAPK (P47811 whole entry): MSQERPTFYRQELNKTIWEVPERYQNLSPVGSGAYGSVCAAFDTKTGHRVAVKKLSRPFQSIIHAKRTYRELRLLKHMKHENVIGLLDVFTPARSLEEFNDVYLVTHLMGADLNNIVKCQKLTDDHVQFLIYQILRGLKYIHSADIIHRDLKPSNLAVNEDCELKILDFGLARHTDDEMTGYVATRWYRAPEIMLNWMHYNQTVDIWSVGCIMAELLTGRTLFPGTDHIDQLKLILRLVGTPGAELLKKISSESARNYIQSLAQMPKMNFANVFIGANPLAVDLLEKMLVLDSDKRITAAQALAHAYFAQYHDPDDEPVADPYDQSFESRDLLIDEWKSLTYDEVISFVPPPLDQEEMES

- inhibition at 1 µM (primary neurons from cerebrum of ICR mouse embryos, 1 μM compound 24 hours, then 1000 ng/ml LPS 6 hours): 55.8%
Structure (SMILES): Cc1c(F)cc(C(=O)NC2CC2)cc1-c1ccc(C(=O)c2c[nH]c3ccccc23)cn1 [Compound 4, 3-(5-(1H-indole-3-carbonyl)pyridin-2-yl)-N-cyclopropyl-5-fluoro-4-methylbenzamide]
- p38 phosphorylation due to inflammation in normal cells (result in words) (primary mouse neurons, 1 μM): effectively inhibited p38 phosphorylation
